Measurements: paper PMC11420244, “Evaluation of the effect of modafinil on the pharmacokinetics of encorafenib and binimetinib in patients with BRAF V600-mutant advanced solid tumors” (Cancer Chemotherapy and Pharmacology, 2024)
Like-named read-outs stand apart in the source and are kept apart here. Blank lines part the entries; values can stand above or below the compound they belong to.

How the values were obtained:
[1] = Phase 1 clinical DDI study: steady-state plasma PK (noncompartmental analysis) with and without modafinil; format: in vivo, Human; details: for MRAUC last (metabolite ratio), Median (range) / MRC max (metabolite ratio), Median (range): metabolite to parent; for AUClast, Median (range) / Cmax, Median (range) / T1/2, Median (range) / Tmax, Median (range) / Tmax / AUC(0-t) / Cmax / half-life: plasma, patients; for Tmax / AUC(0-t) / Cmax / half-life: human; for Tmax: read-out: Tmax, Median (range)
Description: Encorafenib 450 mg QD and binimetinib 45 mg BID were administered starting on Day 1. Patients then received continuous treatment of 400 mg QD modafinil on Day 15 through Day 21. Blood samples for measurement of plasma concentrations of encorafenib (and its metabolite, LHY746) and binimetinib (and its active metabolite, AR00426032), were collected at 0, 1, 2, 3, 4, 6 and 8 h post dose on Day 14 and Day 21.
Human PK plasma samples were analyzed for quantitation of all PK analytes at PPD (Middleton, Wisconsin, US) using validated, sensitive, and specific HPLC/MS/MS methods in compliance with laboratory SOPs.
PK parameters including, but not limited to, Cmax and AUClast were calculated for each participant using noncompartmental analysis (NCA) methods using the WinNonlin software package (Phoenix WinNonlin Professional, version 8.0 Pharsight Corporation, Mountain View, California) for PK analytes including encorafenib and its metabolite LHY746, and binimetinib and its metabolite AR00426032.
All patients who received at least one dose of any study drug were included in the Safety Set population. The Evaluable PK Set included all patients with sufficient concentration data to calculate at least one PK parameter for encorafenib and binimetinib on Days 14 and 21. Patients who discontinued, missed 3 or more consecutive doses of encorafenib prior to completion of the last PK sampling on Day 14, or required a dose reduction of encorafenib prior to completion of the last PK sampling on Day 14 were excluded from the Evaluable PK set. In addition, patients who missed any dose of study drugs on any of the PK days, or who vomited within 4 h after dosing on any of the PK days were excluded from Evaluable PK set.
An analysis of variance (ANOVA) was performed on the natural log (ln)-transformed Cmax and AUClast of encorafenib, LHY746, binimetinib, and AR00426032. The least squares means (LSM) geometric mean ratio (GMR) and associated 90% confidence interval (CI) for each PK parameter were calculated using the exponentiation of the difference between treatment LSM from the analyses on the ln-transformed parameters and expressed as a percentage of Day 21 relative to Day 14.

[2] = Reported DDI studies of CYP3A substrates with strong, moderate or weak CYP3A inducers; format: in vivo; details: ratio of AUC decreases
Excerpt: (§1) Another strategy to predict the effect strong induction may have on encorafenib PK, or the PK of other CYP3A substrates, but with fewer assumptions was proposed in a review by Molenaar-Kuijsten et al.. Based on a review of 12 approved oral anticancer drugs primarily metabolized by CYP3A, if no clinical DDI data were available for moderate inducers, an effect of 50% compared to strong inducers could be assumed. After expanding the dataset of Molenaar-Kuijsten to include 3 additional approved oral anti-cancer drugs (fuzuloparib, pirtobrutinib, and fedratinib) metabolized by CYP3A, we applied this approach in the opposite direction (lack of clinical data for the effect of strong CYP3A4 inducers) given available clinical DDI data generated in this study for encorafenib (Table 3). The median ratio of the decrease for a strong inducer to a moderate inducer was 1.56 and ranged from 1.15 for cobimetinib to 2.43 for palbociclib. […] The upper end of this range is consistent with PBPK simulations conducted prior to the study, indicating encorafenib exposures would decrease by ∼ 58% in combination with rifampin (based on a model with some simplifying assumptions) and would also be consistent with the recommendations based on in vitro data to avoid strong inducers in combination with encorafenib. This approach to managing potential coadminsitration of encorafenib with a strong inducer of CYP3A is the most conservative due to lack of more precise extrapolation methods and clincial data.

[3] = cited from earlier work; for Effect of Moderate CYP3A Inducer on AUC (decrease): Efavirenz; for Effect of Strong CYP3A Inducer on AUC (decrease): Rifampin
[4] = cited from earlier work
CYP3A4 = system: CYP3A4; parameters: method as in earlier work; details: human liver microsomes; cited from earlier work
[5] = parameters: method as in PMID 28611198; details: cited from earlier work
[6] = Extrapolation of strong CYP3A inducer effect on encorafenib from the moderate inducer effect (strong/moderate ratio approach); details: extrapolated from the modafinil effect with strong/moderate ratios 1.15 to 2.43
Excerpt: as §1, with “This approach to managing potential coadminsitration of encorafenib with a strong inducer of CYP3A is the most conservative due to lack of more precise extrapolation methods and clincial data.” left out

[7] = parameters: method as in PMID 37837178; details: cited from earlier work
CYP2C19 = details: cited from earlier work
[8] = Day 14, without modafinil, steady state
[9] = Day 21 (with modafinil) relative to Day 14 (without)
[10] = Day 21, with modafinil 400 mg QD
[11] = Day 21, with modafinil 400 mg QD, steady state

Structure (SMILES): O=C(NOCCO)c1cc2[nH]cnc2c(F)c1Nc1ccc(Br)cc1F [AR00426032]
MRAUC last (metabolite ratio), Median (range) ([1]; Day 14, without modafinil): 0.0482 (0.0182–0.138)
MRC max (metabolite ratio), Median (range) ([1]; Day 14, without modafinil): 0.0367 (0.0165–0.0926)
AUClast, Median (range) [1, 8]: 127 (36.1–226) ng*hr/mL
Cmax, Median (range) [1, 8]: 27.5 (8.23–53.4) ng/mL
T1/2, Median (range) [1, 8]: 5.44 (2.57–8.86) hr
Tmax, Median (range) [1, 8]: 2.00 (0.88-3.00) hr
AUClast GMR (geometric mean ratio) [1, 9]: 0.977
Cmax GMR (geometric mean ratio) [1, 9]: 0.954
MRAUClast GMR [1, 9]: 1.02
MRCmax GMR [1, 9]: 0.950
MRAUC last (metabolite ratio), Median (range) [1, 10]: 0.0440 (0.0275–0.123)
MRC max (metabolite ratio), Median (range) [1, 10]: 0.0335 (0.0192–0.0850)
AUClast, Median (range) [1, 11]: 111 (70.9–197) ng*hr/mL
Cmax, Median (range) [1, 11]: 23.8 (13.7–40.0) ng/mL
T1/2, Median (range) [1, 11]: 5.75 (2.88–18.1) hr
Tmax, Median (range) [1, 11]: 2.00 (0.95–2.23) hr
Time at which mean plasma concentrations typically reach peak levels, postdose ([1]; Days 14 and 21, steady state): 2 h

Structure (SMILES): O=C(c1ccc(F)c(F)c1Nc1ccc(I)cc1F)N1CC(O)([C@@H]2CCCCN2)C1 [Cobimetinib]
Predicted reduction in AUC with moderate CYP3A inducer ([4]; PBPK modeling): 72%
Predicted reduction in AUC with strong CYP3A inducer ([4]; PBPK modeling): 83%
Strong CYP3A Inducer Effect /Moderate CYP3A Inducer Effect [2]: 1.15
Effect of Moderate CYP3A Inducer on AUC (decrease) [3]: ↓ 72%
Effect of Strong CYP3A Inducer on AUC (decrease) [3]: ↓ 83%
Reduction in exposure in combination with weak CYP3A inducer vemurafenib ([3]; in vivo): 13%

Structure (SMILES): O=C(c1cc(Cc2n[nH]c(=O)c3ccccc23)ccc1F)N1CCn2nc(C(F)(F)F)nc2C1 [Fuzuloparib]
Strong CYP3A Inducer Effect /Moderate CYP3A Inducer Effect [2]: 1.45
Effect of Moderate CYP3A Inducer on AUC (decrease) [3]: ↓ 22%
Effect of Strong CYP3A Inducer on AUC (decrease) [3]: ↓ 32%

Second part, led by results:

Strong CYP3A Inducer Effect /Moderate CYP3A Inducer Effect [2]: 1.59
Structure (SMILES): Cc1cc(Nc2ncc(Cl)c(Nc3ccccc3S(=O)(=O)C(C)C)n2)c(OC(C)C)cc1C1CCNCC1 [Ceritinib]
Effect of Moderate CYP3A Inducer on AUC (decrease) [3]: ↓ 43%
Effect of Strong CYP3A Inducer on AUC (decrease) [3]: ↓ 68.5%

Expected reduction in AUC with a strong CYP3A inducer [6]: 28–58%
AUClast GMR (geometric mean ratio) [1, 9]: 0.762
Cmax GMR (geometric mean ratio) [1, 9]: 0.798
Effect of steady-state modafinil on exposure/PK (in words) ([1]; Day 21 vs Day 14, modafinil 400 mg QD): weak effect
Tmax ([1]; oral, Day 14, without modafinil, steady state): 1 h
Tmax ([1]; oral, Day 21, with modafinil 400 mg QD, steady state): 1 h
AUC(0-t) ([1]; oral, 400 mg, Day 21, with modafinil 400 mg QD, steady state, read-out: AUClast, GM (CV%)): 9.1 µg·h/mL
AUC(0-t) ([1]; oral, 400 mg, Day 21, with modafinil 400 mg QD, steady state, read-out: AUClast, Median (range)): 10 µg·h/mL
Cmax ([1]; oral, 400 mg, Day 21, with modafinil 400 mg QD, steady state, read-out: Cmax, Median (range)): 2.75 µg/mL
half-life ([1]; oral, 400 mg, Day 21, with modafinil 400 mg QD, steady state, read-out: T1/2, GM (CV%) (converted)): 3.57 h
half-life ([1]; oral, 400 mg, Day 21, with modafinil 400 mg QD, steady state, read-out: T1/2, Median (range) (converted)): 3.8 h
AUC(0-t) ([1]; oral, Day 14, without modafinil, steady state, read-out: AUClast, GM (CV%)): 11.9 µg·h/mL
AUC(0-t) ([1]; oral, Day 14, without modafinil, steady state, read-out: AUClast, Median (range)): 11.8 µg·h/mL
Cmax ([1]; oral, Day 14, without modafinil, steady state, read-out: Cmax, Median (range)): 3.56 µg/mL
half-life ([1]; oral, Day 14, without modafinil, steady state, read-out: T1/2, GM (CV%) (converted)): 3.48 h
half-life ([1]; oral, Day 14, without modafinil, steady state, read-out: T1/2, Median (range) (converted)): 3.5 h
Cmax ([1]; po, Day 14, without modafinil, steady state, encorafenib 450 mg QD + binimetinib 45 mg BID oral, read-out: Cmax, GM (CV%)): 3.54 µg/mL
Cmax ([1]; po, Day 21, with modafinil 400 mg QD Days 15-21, steady state, encorafenib 450 mg QD + binimetinib 45 mg BID oral, read-out: Cmax, GM (CV%)): 2.83 µg/mL
Structure (SMILES): COC(=O)N[C@@H](C)CNc1nccc(-c2cn(C(C)C)nc2-c2cc(Cl)cc(NS(C)(=O)=O)c2F)n1 [Encorafenib, encorafenib]
Contribution of CYP3A4 to total oxidative clearance (CYP3A4): ~83%
Simulated decrease of exposures in combination with rifampin ([4]; PBPK simulations conducted prior to the study): ~58%
Lower exposure at steady-state compared to following a single dose (auto-induction of CYP3A4) [5]: approximately 50%
Increase in exposures on coadministration of moderate CYP3A4 inhibitor diltiazem [7]: 2 fold
Increase in exposures on coadministration of strong CYP3A inhibitor posaconazole [7]: 3 fold
Contribution of CYP2C19 to oxidative metabolism (CYP2C19): ~16%

Strong CYP3A Inducer Effect /Moderate CYP3A Inducer Effect [2]: 1.72
Structure (SMILES): Cc1cnc(Nc2ccc(OCCN3CCCC3)cc2)nc1Nc1cccc(S(=O)(=O)NC(C)(C)C)c1 [Fedratinib]
Effect of Moderate CYP3A Inducer on AUC (decrease) [3]: ↓ 47%
Effect of Strong CYP3A Inducer on AUC (decrease) [3]: ↓ 81%

Strong CYP3A Inducer Effect /Moderate CYP3A Inducer Effect [2]: 1.38
Structure (SMILES): O=C(c1cc(Cc2n[nH]c(=O)c3ccccc23)ccc1F)N1CCN(C(=O)C2CC2)CC1 [Olaparib]
Effect of Moderate CYP3A Inducer on AUC (decrease) [3]: ↓ 57.3%
